Measured values reported in US11008345B2, “Boron-containing small molecules” (Anacor Pharmaceuticals, Inc., priority 2010, dated 2021).
Structures can show the parent of a compound that is named as a salt. Where two headings read alike, the source gives them in different places.

Columns and labels:
[1] = system: M. tuberculosis strain Erdman; format: in vivo; details: day 24, C57BL/6 GKO mice
[2] = system: M. tuberculosis strain Erdman; format: in vivo; details: C57BL/6 GKO mice; for log 10 CFU for lungs: day 22, lungs; for log 10 CFU for spleens: day 22, spleens

Q: What does the source list for `CCOc1ccc(Br)c2c1B(O)OC2CN` (stereo not shown) [E, 3-(Aminomethyl)-4-bromo-7-ethoxybenzo[c][1,2]oxaborol-1(3H)-ol 2,2,2-trifluoroacetate Salt]?
A: log 10 CFU/lung ([1]; 100 mg/kg BID PO): 2.73 (0.05) log 10 CFU/lung; log 10 CFU for lungs ([2]; 100 mg/kg QD PO): 5.27 (0.12) log 10 CFU; log 10 CFU for spleens ([2]; 100 mg/kg QD PO): 4.27 (0.25) log 10 CFU

Q: How did the “log 10 CFU for lungs” value ([2]; 25 mg/kg QD PO) turn out when `NNC(=O)c1ccncc1` [INH, Isoniazid, reference compound] was run?
A: 5.29 (0.13) log 10 CFU

Q: What about the “log 10 CFU for spleens” value ([2]; 25 mg/kg QD PO) of the same compound?
A: 4.27 (0.25) log 10 CFU

Q: How did the “log 10 CFU/lung” value ([1]; 100 mg/kg BID PO) turn out when `CCOc1ccc(F)c2c1B(O)OC2CN.Cl` (stereo not shown) [C, 3-Aminomethyl-7-ethoxy-4-fluoro-3H-benzo[c][1,2]-oxaborol-1-ol; Hydrochloride] was run?
A: 5.06 (0.26) log 10 CFU/lung

Q: How did the “log 10 CFU/lung” value ([1]; 10 mg/kg QD PO) turn out when `CO[C@H]1/C=C/O[C@@]2(C)Oc3c(C)c(O)c4c(O)c(c(/C=N/N5CCN(C)CC5)c(O)c4c3C2=O)NC(=O)/C(C)=C\C=C\[C@H](C)[C@H](O)[C@@H](C)[C@@H](O)[C@@H](C)[C@H](OC(C)=O)[C@@H]1C` [rifampicin, reference compound] was run?
A: 6.16 (0.10) log 10 CFU/lung

Q: `CCOc1ccc(F)c2c1B(O)O[C@@H]2CN.Cl` (single isomer, unassigned) [N] was tested. Which “log 10 CFU for lungs” value ([2]; 100 mg/kg BID PO) did it give?
A: 5.51 (0.09) log 10 CFU

Q: And the “log 10 CFU for spleens” value ([2]; 100 mg/kg BID PO)?
A: 2.42 (0.48) log 10 CFU

Q: With `CCOc1ccc(Cl)c2c1B(O)O[C@@H]2CN.Cl` (single isomer, unassigned) [L] as the compound, how does the “log 10 CFU/lung” value ([1]; 100 mg/kg QD PO) read?
A: 3.08 (0.06) log 10 CFU/lung
